According to patent US20120122848A1, “(+)-3-HYDROXYMORPHINAN DERIVATIVES AS NEUROPROTECTANTS” (GREEN CROSS CORPORATION, priority 2009, published 2012):
Counter-ions that a name gives are not always drawn.

Tests used:
[1] = Cell cytotoxicity test: protection of HT22 cells against glutamate toxicity (EC50) and cytotoxicity of the compounds (CC50), MTT; format: cell-based, mouse; details: mouse, HT22 cells (mouse hippocampal neuron)
Procedure: (§1) HT22 cells (mouse hippocampal neuron, Salk Institute and KRIBB) were plated in a 96-well plate at a density of 3×10^3 cells/well for 16 hrs before treatment. The cells were treated with five millimolar glutamate and various concentrations of the inventive compounds and incubated for 24 hrs in a growth media (DMEM with 10% FBS and 1% penicillin streptomycin). Then, the cells were treated with 3-(4,5-dimethylthiazol-2-yl)-2,5-diphenyltetrazolium bromide (MTT, Sigma®) for 4 hrs and absorbance of each well was measured with a plate reader at a wavelength of 450 nm. [Da-Qing, et. al., Anti-oxidant and anti-inflammatory activities of macelignan in murine hippocampal cell line and primary culture of rat microglia cells, BBRC, 2005, 331, 1264-1269].
(§2) In Table 1, EC50 is neuroprotective effect against glutamate toxicity and CC50 is cytotoxicity of the compounds. The EC50 values were statistically analyzed using Prizm® (GraphPad Software Inc., San Diego, Calif., USA).

[2] = system: HT22 cells (mouse hippocampal neuron); assay: as above; format: cell-based; details: Mus musculus, HT-22, five millimolar glutamate, 24 hrs, read-out: EC50 (neuroprotective effect against glutamate toxicity)
Procedure: as §1, §2

Row | Compound | CC50 at 24 h [1] [nM] | EC50 [2] [nM]
1 | O=S(=O)(Nc1ccccc1Nc1cc2c(cc1O)[C@]13CCCC[C@@H]1[C@H](C2)NCC3)c1ccccc1 [Example 113, (+)-2-(2-(Benzenesulfonamido)phenylamino)-3-hydroxymorphinan TFA salt] | 3010 | 27.2
2 | CC(=O)Nc1ccc(Nc2cc3c(cc2O)[C@]24CCCC[C@@H]2[C@H](C3)NCC4)cc1 [Example 116, TFA salt] | 36500 | 2840
3 | CC(C)(C)Nc1cc2c(cc1O)[C@]13CCCC[C@@H]1[C@H](C2)NCC3 [Example 20, (+)-2-(tert-Butylamino)-3-hydroxymorphinan TFA salt] | > 100000 | 423
4 | Oc1cc2c(cc1Nc1c(O)cccc1O)C[C@@H]1NCC[C@]23CCCC[C@H]13 [Example 47, (+)-2-(2,6-Dihydroxyphenylamino)-3-hydroxymorphinan TFA salt] | 9000 | 275
5 | Cc1ccccc1Nc1cc2c(cc1O)[C@]13CCCC[C@@H]1[C@H](C2)NCC3 [Example 41, (+)-3-Hydroxy-2-(2-methylphenylamino)morphinan TFA salt] | 6900 | 17.8
6 | Nc1ccccc1Nc1cc2c(cc1O)[C@]13CCCC[C@@H]1[C@H](C2)NCC3 [Example 106, (+)-2-(2-Aminophenylamino)-3-hydroxymorphinan TFA salt] | 21800 | 36.6
7 | CCNc1ccccc1Nc1cc2c(cc1O)[C@]13CCCC[C@@H]1[C@H](C2)NCC3 [Example 130, (+)-2-(2-(Ethylamino)phenylamino)-3-hydroxymorphinan TFA salt] | 1600 | 11.2
8 | CCS(=O)(=O)Nc1ccccc1Nc1cc2c(cc1O)[C@]13CCCC[C@@H]1[C@H](C2)NCC3 [Example 111, (+)-2-(2-(Ethanesulfonamido)phenylamino)-3-hydroxymorphinan TFA salt] | 36500 | 475
9 | CC(C)c1ccccc1Nc1cc2c(cc1O)[C@]13CCCC[C@@H]1[C@H](C2)NCC3 [Example 50, (+)-3-Hydroxy-2-(2-isopropylphenylamino)morphinan TFA salt] | 1000 | 43
10 | Oc1cc2c(cc1N1CCCC1)C[C@@H]1NCC[C@]23CCCC[C@H]13 [Example 22, (+)-3-Hydroxy-2-(pyrrolidin-1-yl)morphinan TFA salt] | 80500 | 638
11 | Oc1cc2c(cc1NCCC(F)(F)F)C[C@@H]1NCC[C@]23CCCC[C@H]13 [Example 97, (+)-3-Hydroxy-2-(3-trifluoropropylamino)morphinan TFA salt] | 67000 | 183
12 | CC(C)Cc1cc2c(cc1O)[C@]13CCCC[C@@H]1[C@H](C2)NCC3 [Example 81, (+)-3-Hydroxy-2-isobutylmorphinan TFA salt] | 11300 | 1430
13 | Oc1cc2c(cc1Nc1ccc(C(F)(F)F)cc1)C[C@@H]1NCC[C@]23CCCC[C@H]13 [Example 35, (+)-3-Hydroxy-2-(4-(trifluoromethyl)phenylamino)morphinan TFA salt] | 52800 | 2590
14 | Oc1ccc(F)cc1Nc1cc2c(cc1O)[C@]13CCCC[C@@H]1[C@H](C2)NCC3 [Example 56, (+)-2-(5-Fluoro-2-hydroxyphenylamino)-3-hydroxymorphinan TFA salt] | 12600 | 354
15 | CCN(CC)c1cc2c(cc1O)[C@]13CCCC[C@@H]1[C@H](C2)NCC3 [Example 101, (+)-2-(Diethylamino)-3-hydroxymorphinan TFA salt] | > 100000 | 14000
16 | CCCN(CCC)c1cc2c(cc1O)[C@]13CCCC[C@@H]1[C@H](C2)NCC3 [Example 96, (+)-2-(Dipropylamino)-3-hydroxymorphinan TFA salt] | 3490 | 178
17 | CCN(C)c1cc2c(cc1O)[C@]13CCCC[C@@H]1[C@H](C2)NCC3 [Example 103, (+)-2-(Ethylmethylamino)-3-hydroxymorphinan TFA salt] | > 100000 | 1590
18 | Oc1cc2c(cc1-c1ccc(Cl)cc1Cl)C[C@@H]1NCC[C@]23CCCC[C@H]13 [Example 76, (+)-2-(2,4-Dichlorophenyl)-3-hydroxymorphinan TFA salt] | 4400 | 2970
19 | CCCCNc1cc2c(cc1O)[C@]13CCCC[C@@H]1[C@H](C2)NCC3 [Example 90, (+)-2-Butylamino-3-hydroxymorphinan TFA salt] | 35000 | 74.7
20 | Oc1cc2c(cc1Nc1cccc(F)c1)C[C@@H]1NCC[C@]23CCCC[C@H]13 [Example 39, (+)-2-(3-Fluorophenylamino)-3-hydroxymorphinan TFA salt] | 13800 | 145
21 | Oc1cc2c(cc1Sc1ccccc1)C[C@@H]1NCC[C@]23CCCC[C@H]13 [Example 73, (+)-3-Hydroxy-2-phenylthiomorphinan TFA salt] | 5570 | 1670
22 | Oc1cc2c(cc1Nc1ccc3c(c1)CCCC3)C[C@@H]1NCC[C@]23CCCC[C@H]13 [Example 71, (+)-3-Hydroxy-24(5,6,7,8-tetrahydronaphthalen-2-ybamino)morphinan TFA salt] | 1600 | 36.2
23 | CS(=O)(=O)Nc1ccccc1Nc1cc2c(cc1O)[C@]13CCCC[C@@H]1[C@H](C2)NCC3 [Example 110, (+)-3-Hydroxy-2-(2-(methanesulfonamido)phenylamino)morphinan TFA salt] | 7550 | 4.53
24 | N#Cc1cccc(-c2cc3c(cc2O)[C@]24CCCC[C@@H]2[C@H](C3)NCC4)c1 [Example 78, (+)-2-(3-Cyanophenyl)-3-hydroxymorphinan TFA salt] | 21000 | 4600
25 | Oc1cc2c(cc1Nc1ccc3c(c1)OCO3)C[C@@H]1NCC[C@]23CCCC[C@H]13 [Example 36, (+)-3-Hydroxy-2-((3,4-methylendioxy)phenylamino)morphinan TFA salt] | 84500 | 301
26 | COc1ccccc1Nc1cc2c(cc1O)[C@]13CCCC[C@@H]1[C@H](C2)NCC3 [Example 42, (+)-3-Hydroxy-2-(2-methoxyphenylamino)morphinan TFA salt] | 11400 | 95.9
27 | CNc1cc2c(cc1O)[C@]13CCCC[C@@H]1[C@H](C2)NCC3 [Example 18, (+)-3-Hydroxy-2-(methylamino)morphinan TFA salt] | 59000 | 193
28 | Oc1cc2c(cc1Nc1ccc(Cl)c(Cl)c1)C[C@@H]1NCC[C@]23CCCC[C@H]13 [Example 65, (+)-2-(3,4-Dichlorophenylamino)-3-hydroxymorphinan TFA salt] | 1600 | 314
29 | CCOC(=O)Nc1ccccc1Nc1cc2c(cc1O)[C@]13CCCC[C@@H]1[C@H](C2)NCC3 [Example 117, (+)-2-(2-(Ethoxycarbonylamino)phenylamino)-3-hydroxymorphinan TFA salt] | 36500 | 1080
30 | Oc1cc2c(cc1Nc1cccc(Cl)c1O)C[C@@H]1NCC[C@]23CCCC[C@H]13 [Example 55, (+)-2-(3-Chloro-2-hydroxyphenylamino)-3-hydroxymorphinan TFA salt] | 9200 | 101
